# Measurements taken from patent US8188287B2, “Piperidyl acrylamide antagonists of CCR2” (Janssen Pharmaceutica N.V., priority 2008, dated 2012).
# Target: T1, CCR2 (Homo sapiens, UniProt P41597)
# T1 construct: host or cells: THP-1 (human monocytic cell line)
# Assay: MCP-1 Receptor Binding Assay in THP-1 Cells
# Settings: 125I labeled MCP-1 0.5 nM, 2 hours at 30° C., read-out: Inhibition of MCP-1 Binding IC50
# Method: MCP-1 Receptor Binding Assay in THP-1 Cells
# Human monocytic cell line THP-1 cells were obtained from American Type Culture Collection (Manassas, Va., USA). The THP-1 cells were grown in RPMI-1640 (RPMI: Roswell Park Memorial Institute Medium-cell culture growth media) supplemented with 10% fetal bovine serum in a humidified 5% CO2 atmosphere at 37° C. The cell density was maintained […].
# THP-1 (cells were incubated with 0.5 nM ^125I labeled MCP-1 (Perkin-Elmer Life Sciences, Inc. Boston, Mass.) in the presence of varying concentrations of either unlabeled MCP-1 (R & D Systems, Minneapolis, Minn.) or test compound for 2 hours at 30° C. in a 96 well plate. Cells were then harvested onto a filter plate, dried, and 20 μL of Microscint 20 was added to each well. Plates were counted in a TopCount NXT, Microplate Scintillation & Luminescence Counter (Perkin-Elmer Life Sciences, Inc. Boston, Mass.). Blank values (buffer only) were subtracted from all values and drug treated values were compared to vehicle treated values. 1 μM cold MCP-1 was used for nonspecific binding.
# Table 1 lists IC50 values for inhibition of MCP-1 binding to CCR2 obtained for test compounds of the invention. Where an IC50 value was not obtained for a particular compound, the percent inhibition is provided at a test concentration of 25 μM. TABLE 1 Inhibition of MCP-1 Binding IC50 (μM)
# T1 sequence (P41597 whole entry): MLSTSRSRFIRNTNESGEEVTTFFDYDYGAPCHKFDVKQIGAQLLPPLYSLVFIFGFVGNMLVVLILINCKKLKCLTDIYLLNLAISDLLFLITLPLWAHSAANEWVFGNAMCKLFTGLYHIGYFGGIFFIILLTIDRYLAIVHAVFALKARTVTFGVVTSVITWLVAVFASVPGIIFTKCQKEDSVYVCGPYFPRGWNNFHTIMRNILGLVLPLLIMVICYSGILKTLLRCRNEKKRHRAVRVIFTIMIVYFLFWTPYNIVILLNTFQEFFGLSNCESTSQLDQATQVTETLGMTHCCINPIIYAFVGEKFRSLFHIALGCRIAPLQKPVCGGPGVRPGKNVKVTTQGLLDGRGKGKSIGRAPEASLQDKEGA
row,SMILES,IC50
1,"O=C(O)C(NN1CCC(c2c[nH]c3ccccc23)CC1)C1CCN(C(=O)/C=C/c2cc(F)c(F)c(F)c2)CC1 (racemic) [Compound 5d, [4-(1H-Indol-3-yl)-piperidin-1-ylamino]-{1-[3-(3,4,5-trifluoro-phenyl)-acryloyl]-piperidin-4-yl}-acetic acid]",640 nM
2,"O=C(/C=C/c1cc(F)c(F)c(F)c1)N1CCC(NN2CCC(c3c[nH]c4ccccc34)CC2)CC1 [Compound 3a, 1-{4-[4-(1H-Indol-3-yl)-piperidin-1-ylamino]-piperidin-1-yl}-3-(3,4,5-trifluoro-phenyl)-propenone]",1600 nM
3,"O=C(/C=C/c1cc(F)c(F)c(F)c1)N1CCC(N(CC(O)CO)N2CCC(c3c[nH]c4ccccc34)CC2)CC1 (stereo not shown) [Compound 4d, 1-(4-{(2,3-Dihydroxy-propyl)-[4-(1H-indol-3-yl)-piperidin-1-yl]-amino}-piperidin-1-yl)-3-(3,4,5-trifluoro-phenyl)-propenone]",1400 nM

# Same assay, conditions: test concentration of 25 μM, 125I labeled MCP-1 0.5 nM
row,SMILES,Inhibition of MCP-1 Binding Inh (%)
1,"CN(C1CCN(C(=O)/C=C/c2cc(F)c(F)c(F)c2)CC1)N1CCC(c2c[nH]c3ccccc23)CC1 [Compound 4a, 1-(4-{[4-(1H-Indol-3-yl)-piperidin-1-yl]-methyl-amino}-piperidin-1-yl)-3-(3,4,5-trifluoro-phenyl)-propenone]",59%
2,"CCN(C1CCN(C(=O)/C=C/c2cc(F)c(F)c(F)c2)CC1)N1CCC(c2c[nH]c3ccccc23)CC1 [Compound 4b, 1-(4-{Ethyl-[4-(1H-indol-3-yl)-piperidin-1-yl]-amino}-piperidin-1-yl)-3-(3,4,5-trifluoro-phenyl)-propenone]",34%
3,"CC(C)CN(C1CCN(C(=O)/C=C/c2cc(F)c(F)c(F)c2)CC1)N1CCC(c2c[nH]c3ccccc23)CC1 [Compound 4c, 1-(4-{[4-(1H-Indol-3-yl)-piperidin-1-yl]-isobutyl-amino}-piperidin-1-yl)-3-(3,4,5-trifluoro-phenyl)-propenone]",0%
4,"O=C(/C=C/c1cc(F)c(F)c(F)c1)N1CCC(N(Cc2ncc[nH]2)N2CCC(c3c[nH]c4ccccc34)CC2)CC1 [Compound 4e, 1-(4-{(1H-Imidazol-2-ylmethyl)-[4-(1H-indol-3-yl)-piperidin-1-yl]-amino}-piperdin-1-yl)-3-(3,4,5-trifluoro-phenyl)-propenone]",20%
